# Columns and labels:
# [1] = system: EpiDerm 3-D human skin tissue; assay: EpiDerm 3-D human skin tissue exposed to croton oil plus azelates, multiplex immunoassays of 47 markers; format: cell-based; details: croton oil + azelate, 24 hours; medium and tissue lysates
# Experimental: EpiDerm 3-D human skin tissue (MatTek) was exposed to an irritant, croton oil+the azelates for 24 hours. Levels of 47 cytokines and other signaling molecules were measured in cultured media and tissue lysates using multiplex immunoassays. Relative % differences in levels of select markers in medium and tissues after treatment with croton oil plus azelates versus croton oil alone were graphed as heat maps displaying statistically significant/nearly significant differences and distinct patterns of marker modulation. The azelates also exerted chemoprotective activity against croton oil damage on microscopic examination.
# [2] = Oral glucose tolerance test in ethanol-induced insulin resistance state, human self-study; format: in vivo
# [3] = Human clinical trial: OGTT in non-diabetic insulin resistant adult males at Day 1 and Day 21; format: in vivo; details: for Percent change: Day-1 vs. Day-21 average blood glucose: (Day-1 − Day-21)/Day-21 ×100%; for OGTT Blood Glucose Level, Day-21 Group Average: after 21 days 1 mg/kg oral once a day, 3 subjects
# Experimental: A total of eight subjects were screened, out of which four subjects satisfied all the eligibility criteria. Three healthy male volunteers ranging between 18-50 years of age weighing between 80-120 kg were enrolled in the study. At screening, subjects were non-diabetic insulin resistant (NDIR) having a fasting plasma glucose of greater than 75 mg/dL and less than 126 mg/dL and have a compensatory hyperinsulinemia having a mean of two consecutive fasting insulin samples collected between 10 to 30 minutes apart of great than 12 μIU/mL. Subjects had no clinically significant illness that may affect glucose metabolism, insulin sensitivity or makes them otherwise unsuitable for inclusion in the study. Subjects had no history or ongoing significant abnormalities or diseases, in the areas, such as, endocrine, gastrointestinal, cardiovascular, hematological, renal, upper or lower respiratory, neoplasia. Subjects had no uncontrolled blood pressure of greater than 160/95 mmHg at screening. […] Subjects had not used antidiabetic or antihyperglycemic medications in the last 6 months. Subjects had not used tobacco or nicotine containing products in the last 3 months. Subjects were not mentally or legally incapacitated. Subjects had no history of significant psychiatric disorder (within the last 10 years) and had no significant emotional problems at the time of the study. All subjects were evaluable for safety and all blood collections for pharmacokinetic analysis were collected as scheduled. All studies were performed with institutional review board approval and patient consent. The Board was constituted and operated in accordance with the principles and requirements described in the US Code of Federal Regulations (21 CFR Part 56). The board was ICH compliant. This study was an open label test/retest study measuring the change from baseline of selected biomarkers and computational indices of insulin sensitivity of the adult male volunteers in response to multiple doses of diethyl azelate. The study population was restricted to male participants in order to control for the variability associated with the menstrual cycle on the metabolic parameters of interest (Sheu, Chen et al. 2003). Baseline parameters were assessed followed by retest assessments at three weeks (21-days) post-dose. Diethyl azelate (density of 0.973 g/mL at 25° C. or 973 mg/mL) was administered orally by needless syringes once a day at 1 mg/kg to each subject for 21 days starting at Day 1. The dose was calculated as described below, with standard rounding conventions applied to the nearest 0.01 mL: 1 mg/kg×Participant Weight (kg)×(1 mL/973 mg)=X mL to Dose Additional marketed pharmaceutical products were administered as part of the study procedures or as challenge agents associated with the Oral Glucose Tolerance (OGTT). These include 75 g CHO (carbohydrate) Glucola and small volumes of 0.9% Normal Saline administered intravenously secondary to blood collection. Subjects were evaluated with a baseline OGTT on Day 1 and a final OGTT on Day 21. Safety assessments were performed on each subject during the course of the study including clinical examination, vital signs recording, ECG recording, adverse event (AE) monitoring, and concomitant medication assessment. An Oral Glucose Tolerance Test (OGTT) was performed at baseline on Day 1 and Day 21. The OGTT was performed after a fast greater than eight hours and consisted of eight blood collections. Subjects were administrated a bottle of Glucola drink (containing 50% dextrose I 75 g dextrose in 150 mL solution; available as GlucoCrush™) over a course of five minutes, starting at T=0 (first sip of the Glucola). Two blood-draws occurred ˜30 minutes and just prior (˜0 minute) to administration of the Glucola. Post-meal blood collection occurred at 30, 60, 90, 120, and 180 minutes. Samples for glucose and exploratory PK and biomarker samples were collected at all timepoints associated with the OGTT. […]
# [4] = system: PAMP receptors (Toll-Like Receptors) on dendritic cells; assay: PAMP receptor agonist-induced signaling in dendritic cells; format: cell-based; details: 0.5% DEA, 24 hours
# Experimental: The azelates modulated broad-range signaling of pathogen-associated molecular patterns (PAMP) receptors: Toll-Like Receptors (TLRs) are a class of PAMP receptors. Various PAMP receptor agonists (ligands); nineteen discrete entities, were added to dendritic cells along with 0.5% diethyl azelate (DEA) and measured levels of 34 signaling molecules (ATP, cytokines, chemokines) produced by the cells after 24 hours. To assess if DEA affected PAMP receptor signaling, the ratios of the levels of these molecules were calculated in treated and untreated cells. If DEA had no effect, these ratios would be equal to 1. […] A similar effect of DEA was observed on the ratios of other signaling molecules.
# [5] = Human clinical trial: safety and tolerability; format: in vivo
# Experimental: To evaluate the safety and tolerability of diethyl azelate (immediate release form) when administered orally to insulin resistant adult male volunteers, and to evaluate the change from baseline of selected biomarkers and computational indices of dysmetabolism when diethyl azelate is administered orally to insulin resistant adult male volunteers.
# A total of eight subjects were screened, out of which four subjects satisfied all the eligibility criteria. Three healthy male volunteers ranging between 18-50 years of age weighing between 80-120 kg were enrolled in the study. At screening, subjects were non-diabetic insulin resistant (NDIR) having a fasting plasma glucose of greater than 75 mg/dL and less than 126 mg/dL and have a compensatory hyperinsulinemia having a mean of two consecutive fasting insulin samples collected between 10 to 30 minutes apart of great than 12 μIU/mL. Subjects had no clinically significant illness that may affect glucose metabolism, insulin sensitivity or makes them otherwise unsuitable for inclusion in the study. Subjects had no history or ongoing significant abnormalities or diseases, in the areas, such as, endocrine, gastrointestinal, cardiovascular, hematological, renal, upper or lower respiratory, neoplasia. Subjects had no uncontrolled blood pressure of greater than 160/95 mmHg at screening. […] Subjects had not used antidiabetic or antihyperglycemic medications in the last 6 months. […]
# Diethyl azelate (density of 0.973 g/mL at 25° C. or 973 mg/mL) was administered orally by needless syringes once a day at 1 mg/kg to each subject for 21 days starting at Day 1. The dose was calculated as described below, with standard rounding conventions applied to the nearest 0.01 mL: 1 mg/kg×Participant Weight (kg)×(1 mL/973 mg)=X mL to Dose
# Additional marketed pharmaceutical products were administered as part of the study procedures or as challenge agents associated with the Oral Glucose Tolerance (OGTT). […] Subjects were evaluated with a baseline OGTT on Day 1 and a final OGTT on Day 21. […]
# [6] = oral 1 mg/kg once a day, 21 days, three subjects
structure (smiles),measurement,setting,value
CCOC(=O)CCCCCCCC(=O)OCC [diethyl azelate],"cytokine levels (IL-1 a, IL-6, IL-8, TNF-a) versus croton oil alone",[1],"downregulated multiple cytokines relevant to T2D including IL-1 a, IL-6, IL-8, and TNF-a"
same,percentage decrease of glucose levels vs untreated control state (ethanol-induced insulin resistance),"[2]; fasting (t=0), p=0.02",13.6%
same,change in blood glucose in induced insulin resistance state (OGTT),"[2]; human self-study, 50 ml ethanol, 1 mg/kg oral 8 hours prior to OGTT (75 g glucose), 0, 1, 2, 4 hours",significant decrease of glucose at the baseline (fasting) and highly significant (p<0.0001) at the peak postprandial time point at 2 hours
same,percentage decrease of glucose levels vs untreated control state (ethanol-induced insulin resistance),"[2]; t=1 hour, statistically not significant",11.4%
same,percentage decrease of glucose levels vs untreated control state (ethanol-induced insulin resistance),"[2]; t=2 hours, p=6×10−6",36.7%
same,increase in glucose level vs untreated control state (ethanol-induced insulin resistance),"[2]; t=4 hours, not statistically significant",8.8%
same,Percent change: Day-1 vs. Day-21 average blood glucose,[3]; 0 min,6.5%
same,"OGTT Blood Glucose Level, Day-21 Group Average",[3]; 0 min,94.5 mg/dL
same,Percent change: Day-1 vs. Day-21 average blood glucose,[3]; 30 min,14.5%
same,"OGTT Blood Glucose Level, Day-21 Group Average",[3]; 30 min,148.0 mg/dL
same,Percent change: Day-1 vs. Day-21 average blood glucose,[3]; 60 min,15.7%
same,"OGTT Blood Glucose Level, Day-21 Group Average",[3]; 60 min,142.3 mg/dL
same,Percent change: Day-1 vs. Day-21 average blood glucose,[3]; 90 min,46.3%
same,"OGTT Blood Glucose Level, Day-21 Group Average",[3]; 90 min,105.8 mg/dL
same,Percent change: Day-1 vs. Day-21 average blood glucose,[3]; 120 min,15.1%
same,"OGTT Blood Glucose Level, Day-21 Group Average",[3]; 120 min,99.2 mg/dL
same,Percent change: Day-1 vs. Day-21 average blood glucose,[3]; 180 min,18.6%
same,"OGTT Blood Glucose Level, Day-21 Group Average",[3]; 180 min,71.2 mg/dL
same,insulin metabolism profile after treatment,"[3]; all three subjects, after 21 days of treatment",normal healthy insulin metabolism profiles
same,average blood glucose levels after the 3-weeks treatment course,"[3]; at T=30 mins and 60 mins, pre-treatment 164 to 170 mg/dl",below 150 mg/dl
same,Percent change: Day-1 vs. Day-21 average blood glucose,[3]; −5 min,6.2%
same,"OGTT Blood Glucose Level, Day-21 Group Average",[3]; −5 min,94.0 mg/dL
same,Percent change: Day-1 vs. Day-21 average blood glucose,[3]; −30 min,6.0%
same,"OGTT Blood Glucose Level, Day-21 Group Average",[3]; −30 min,94.1 mg/dL
same,signaling induced by TLR agonists (ATP ratio treated/untreated cells),[4],decreased signaling induced by most TLR agonists
same,effect on signaling of PAMP receptors,[4]; 34 signaling molecules,affected signaling of all PAMP receptors but the effect was greater for the receptors localized on the cell surface than for these inside the cell
same,adverse events observed,[5]; [6],loose stools in one subject
same,"drug-related changes in physical examinations, vital signs, or electrocardiograms (ECGs)",[5]; [6],no clinically meaningful drug-related changes
same,tolerability,"[5]; oral, three male subjects",well tolerated

# — patent US12329735B2, “Azelaic acid esters in the treatment of insulin resistance” (NEW FRONTIER LABS, LLC, priority 2016, dated 2025)
